Measured values as given in patent publication US10925282B2, “Enhanced kill of microorganisms” (CONOCOPHILLIPS COMPANY, priority 2017, dated 2021).
Like-named read-outs stand apart in the source and are kept apart here.

Assays:
[1] = tested on: freshwater denitrifying culture; details: 20 mM; 30-minute exposure; cited from earlier work
[2] = tested on: Barnett sulfate reducing bacteria (SRB) culture
[3] = 1 mM nitrite, approximately 24 hours

Structure (SMILES) | reduction of ATP levels [1] | cATP concentration [2, 3] | reduction in cATP concentrations [2, 3] | time required to reach a cATP concentration below 1000 picograms per mL ([2]; 1 mM nitrite, initial microbial equivalency 1.0×10^7 cells/mL, 30° C.) | reduction in cATP concentrations ([2]; 2 mM nitrite, same time period (approximately 24 hours))
[O]=[W](=[O])([O-])[O-] [tungstate] | 41% |  |  |  | 
O=NO [nitrite] |  | below 1000 picograms per mL | > 90% | Approximately 24 hours | > 99%
